In brackets after ≈: the same amount, converted by molar mass.
Assays:
[1] = tested on: MRSA; test: Broth microdilution MIC, Example 7 (NCL812 and analogues); assay type: cell-based, Staphylococcus aureus
In short: (§1)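 Isolates were tested in duplicate, with a third run if replicates differed by more than one two-fold dilution; inoculum purity was checked on sheep blood agar.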

[2] = tested on: VRE; test: as above; assay type: cell-based, Enterococcus spp.
In short: as §1

[3] = tested on: Escherichia coli; test: as above; assay type: cell-based; details: E. coli, 24 hours
[4] = tested on: Pseudomonas aeruginosa; test: as above; assay type: cell-based; details: P. aeruginosa, 24 hours
[5] = tested on: Staphylococcus pseudintermedius isolates (MSSP and MRSP); test: Disk diffusion and Epsilometer susceptibility testing, Example 6; assay type: cell-based; details: 13 MRSP isolates
[6] = MRSA 1, 24 hours, duplicate lines per compound
[7] = MRSA 2, 24 hours, duplicate lines per compound
[8] = VRE 1, 24 hours, duplicate lines per compound
[9] = VRE 2, 24 hours, duplicate lines per compound

| SMILES | MIC (μg/ml) at 24 hours, MRSA 1 [1, 6] [µg/mL] | MIC (μg/ml) at 24 hours, MRSA 2 [1, 7] [µg/mL] | MIC (μg/ml) at 24 hours, VRE 1 [2, 8] [µg/mL] | MIC (μg/ml) at 24 hours, VRE 2 [2, 9] [µg/mL] | MIC (μg/ml) at 24 hours, E. coli ([3]; duplicate lines per compound) [µg/mL] | MIC (μg/ml) at 24 hours, P. aeruginosa ([4]; duplicate lines per compound) [µg/mL] | MIC (μg/ml) at 24 hours, MRSA 1 ([1]; MRSA 1, 24 hours) [µg/mL] | MIC (μg/ml) at 24 hours, MRSA 2 ([1]; MRSA 2, 24 hours) [µg/mL] | MIC (μg/ml) at 24 hours, VRE 1 ([2]; VRE 1, 24 hours) [µg/mL] | MIC (μg/ml) at 24 hours, VRE 2 ([2]; VRE 2, 24 hours) [µg/mL] | MIC (μg/ml) at 24 hours, E. coli [3] [µg/mL] | MIC (μg/ml) at 24 hours, P. aeruginosa [4] [µg/mL] | MRSP isolates susceptible [5] [%] |
| --- | --- | --- | --- | --- | --- | --- | --- | --- | --- | --- | --- | --- | --- |
| N=C(NN=Cc1ccc(Cl)cc1N)NN=Cc1ccc(Cl)cc1N [NCL 169] | 32 (≈ 87.9 µM) | 64 (≈ 176 µM) | 32 (≈ 87.9 µM) | 32 (≈ 87.9 µM) | >128 | >128 | – | – | – | – | – | – | – |
| CC(=O)Nc1cc(Cl)ccc1C=NNC(=N)NN=Cc1ccc(Cl)cc1NC(C)=O [NCL 170] | >128 | >128 | >128 | >128 | >128 | >128 | – | – | – | – | – | – | – |
| CC(=NNC(=N)NN=C(C)c1ccccn1)c1ccccn1.Cl [NCL 172] | – | – | – | – | – | – | 128 | 64 | >128 | >128 | >128 | >128 | – |
| CC1(C)S[C@@H]2[C@H](NC(=O)[C@H](N)c3ccc(O)cc3)C(=O)N2[C@H]1C(=O)O [amoxicillin] | – | – | – | – | – | – | – | – | – | – | – | – | 23 |

The next lines start with results.

| MIC (μg/ml) at 24 hours, MRSA 1 [1, 6] [µg/mL] | MIC (μg/ml) at 24 hours, MRSA 2 [1, 7] [µg/mL] | MIC (μg/ml) at 24 hours, VRE 1 [2, 8] [µg/mL] | MIC (μg/ml) at 24 hours, VRE 2 [2, 9] [µg/mL] | MIC (μg/ml) at 24 hours, E. coli ([3]; duplicate lines per compound) [µg/mL] | MIC (μg/ml) at 24 hours, P. aeruginosa ([4]; duplicate lines per compound) [µg/mL] | MIC (μg/ml) at 24 hours, MRSA 1 ([1]; MRSA 1, 24 hours) [µg/mL] | MIC (μg/ml) at 24 hours, MRSA 2 ([1]; MRSA 2, 24 hours) [µg/mL] | MIC (μg/ml) at 24 hours, VRE 1 ([2]; VRE 1, 24 hours) [µg/mL] | MIC (μg/ml) at 24 hours, VRE 2 ([2]; VRE 2, 24 hours) [µg/mL] | MIC (μg/ml) at 24 hours, E. coli [3] [µg/mL] | MIC (μg/ml) at 24 hours, P. aeruginosa [4] [µg/mL] | SMILES | MRSP isolates susceptible [5] [%] |
| --- | --- | --- | --- | --- | --- | --- | --- | --- | --- | --- | --- | --- | --- |
| – | – | – | – | – | – | 16 | 16 | 4 | 32 | >128 | >128 | CC(=NNC(=N)NN=C(C)c1ccc(Cl)cc1O)c1ccc(Cl)cc1O.Cl [NCL 173] | – |
| – | – | – | – | – | – | 32 | 32 | 4 | 32 | >128 | >128 | Cl.N=C(NN=Cc1ccc(Cl)cc1O)NN=Cc1ccc(Cl)cc1O [NCL 174] | – |
| – | – | – | – | – | – | 64 | >128 | 32 | >128 | >128 | >128 | Cl.N=C(N/N=C/c1ccc(Cl)nc1)N/N=C/c1ccc(Cl)nc1 [NCL 175] | – |
| – | – | – | – | – | – | >128 | >128 | >128 | >128 | >128 | >128 | Cl.N=C(NN=Cc1cccnc1N)NN=Cc1cccnc1N [NCL 176] | – |
| – | – | – | – | – | – | 8 | 8 | 4 | 8 | >128 | >128 | Cl.N=C(NN=C(CO)c1ccc(Cl)cc1)NN=C(CO)c1ccc(Cl)cc1 [NCL 177] | – |

— patent US10253002B2, “Compounds and methods of treating infections” (Neoculi Pty Ltd., priority 2013, dated 2019)
